Test results from the NIST ThermoML archive (doi:10.1016/j.jct.2017.02.023).

Legend:
[1] = xn = mol fraction of the nth substance listed; conditions: 81.5 kPa, Liquid, Vibrating tube method
[2] = refractive index (Na D-line) (dimensionless); xn = mol fraction of the nth substance listed; conditions: 81.5 kPa, Liquid, Standard Abbe refractometry

CNC1CCCCC1 [N-methylcyclohexylamine] + CCCCCCC(C)O
Conditions	mass density, 298.15 K [kg/m3]	mass density, 308.15 K [kg/m3]	mass density, 318.15 K [kg/m3]	mass density, 328.15 K [kg/m3]	refractive index, 298.15 K	refractive index, 308.15 K	refractive index, 318.15 K	refractive index, 328.15 K
[1], x2 = 0	865.2	856.57	847.67	838.68	–	–	–	–
[1], x2 = 0.0727	861.37	852.86	844.07	835.18	–	–	–	–
[1], x2 = 0.148	857.59	849.18	840.45	831.62	–	–	–	–
[1], x2 = 0.2246	853.95	845.6	836.92	828.14	–	–	–	–
[1], x2 = 0.3025	850.34	842.06	833.44	824.7	–	–	–	–
[1], x2 = 0.3826	846.62	838.42	829.86	821.17	–	–	–	–
[1], x2 = 0.4636	842.77	834.65	826.15	817.53	–	–	–	–
[1], x2 = 0.5484	838.61	830.58	822.16	813.61	–	–	–	–
[1], x2 = 0.6332	834.36	826.43	818.08	809.6	–	–	–	–
[1], x2 = 0.7205	829.99	822.17	813.9	805.49	–	–	–	–
[1], x2 = 0.8128	825.54	817.82	809.62	801.27	–	–	–	–
[1], x2 = 0.9052	821.3	813.66	805.52	797.23	–	–	–	–
[2], x2 = 0	–	–	–	–	1.45306	1.44812	1.4431	1.43809
[2], x2 = 0.0727	–	–	–	–	1.45123	1.44643	1.44156	1.43676
[2], x2 = 0.148	–	–	–	–	1.44931	1.44459	1.43978	1.43507
[2], x2 = 0.2246	–	–	–	–	1.44739	1.44272	1.43794	1.43327
[2], x2 = 0.3025	–	–	–	–	1.44545	1.44084	1.43612	1.43148
[2], x2 = 0.3826	–	–	–	–	1.44348	1.43892	1.43425	1.42963
[2], x2 = 0.4636	–	–	–	–	1.44143	1.43692	1.43233	1.42778
[2], x2 = 0.5484	–	–	–	–	1.43898	1.43456	1.43003	1.42554
[2], x2 = 0.6332	–	–	–	–	1.43641	1.43207	1.42763	1.42323
[2], x2 = 0.7205	–	–	–	–	1.4337	1.42942	1.42503	1.42073
[2], x2 = 0.8128	–	–	–	–	1.43079	1.42658	1.42227	1.41802
[2], x2 = 0.9052	–	–	–	–	1.42779	1.42366	1.41941	1.41523

CNC1CCCCC1 [N-methylcyclohexylamine] + CCCCCC(C)O
Conditions	mass density, 298.15 K [kg/m3]	mass density, 308.15 K [kg/m3]	mass density, 318.15 K [kg/m3]	mass density, 328.15 K [kg/m3]	refractive index, 298.15 K	refractive index, 308.15 K	refractive index, 318.15 K	refractive index, 328.15 K
[1], x2 = 0	865.2	856.57	847.67	838.68	–	–	–	–
[1], x2 = 0.0812	861.21	852.71	843.93	835.06	–	–	–	–
[1], x2 = 0.1624	857.38	848.98	840.27	831.44	–	–	–	–
[1], x2 = 0.2448	853.62	845.28	836.62	827.83	–	–	–	–
[1], x2 = 0.3273	849.83	841.57	832.96	824.22	–	–	–	–
[1], x2 = 0.4098	845.9	837.7	829.15	820.48	–	–	–	–
[1], x2 = 0.486	842.05	833.91	825.44	816.83	–	–	–	–
[1], x2 = 0.5764	837.18	829.14	820.75	812.23	–	–	–	–
[1], x2 = 0.6517	832.93	824.98	816.67	808.22	–	–	–	–
[1], x2 = 0.7435	827.66	819.81	811.59	803.21	–	–	–	–
[1], x2 = 0.8282	822.84	815.09	806.94	798.61	–	–	–	–
[1], x2 = 0.9132	818.13	810.46	802.36	794.07	–	–	–	–
[2], x2 = 0	–	–	–	–	1.45306	1.44812	1.4431	1.43809
[2], x2 = 0.0812	–	–	–	–	1.45091	1.44613	1.44128	1.43645
[2], x2 = 0.1624	–	–	–	–	1.44856	1.44387	1.4391	1.43432
[2], x2 = 0.2448	–	–	–	–	1.44622	1.44158	1.43686	1.43214
[2], x2 = 0.3273	–	–	–	–	1.44391	1.43933	1.43466	1.42997
[2], x2 = 0.4098	–	–	–	–	1.44151	1.43699	1.43236	1.42773
[2], x2 = 0.486	–	–	–	–	1.43911	1.43464	1.43007	1.4255
[2], x2 = 0.5764	–	–	–	–	1.43598	1.43158	1.42708	1.42258
[2], x2 = 0.6517	–	–	–	–	1.43316	1.42882	1.42438	1.41996
[2], x2 = 0.7435	–	–	–	–	1.42959	1.42534	1.421	1.41664
[2], x2 = 0.8282	–	–	–	–	1.42631	1.42213	1.41786	1.41356
[2], x2 = 0.9132	–	–	–	–	1.423	1.41886	1.41462	1.41037
